What all share (assay type): biochemical
The target of assay [1] is LCK (Homo sapiens, UniProt P06239). In words: Kinase panel inhibition, LCK (one of the methods of Example 76a, 76b, 76c). The protocol: (§1) Btk kinase activity is determined using a time-resolved fluorescence resonance energy transfer (TR-FRET) methodology. Measurements are performed in a reaction volume of 50 μL using 96-well assay plates. Kinase enzyme, inhibitor, ATP (at the Km for the kinase), and 1 peptide substrate (Biotin-AVLESEEELYSSARQ-NH2) are incubated in a reaction buffer composed of 20 mM Tris, 50 mM NaCl, MgCl2 (5-25 mM depending on the kinase), MnCl2 (0-10 mM), 1 mM DTT, 0.1 mM EDTA, 0.01% bovine serum albumin, 0.005% Tween-20, and 10% DMSO at pH 7.4 for one hour. The reaction is quenched by the addition of 1.2 equivalents of EDTA (relative to divalent cation) in 25 μL of 1× Lance buffer (Perkin-Elmer). Streptavidin-APC (Perkin-Elmer) and Eu-labeled p-Tyr100 antibody (Perkin-Elmer) in 1× Lance buffer are added in a 25 μL volume to give final concentrations of 100 nM and 2.5 nM, respectively, and the mixture is allowed to incubate for one hour. The TR-FRET signal is measured on a multimode plate reader with an excitation wavelength (λEx) of 330 nm and detection wavelengths (λEm) of 615 and 665 nm. Activity is determined by the ratio of the fluorescence at 665 nm to that at 615 nm. For each compound, enzyme activity is measured at various concentrations of compound. Negative control reactions are performed in the absence of inhibitor in replicates of six, and two no-enzyme controls are used to determine baseline fluorescence levels. Inhibition constants, Ki(app), were obtained using the program BatchKi (Kuzmic et al. (2000), Anal. Biochem. 286:45-50). IC50s are obtained according to the equation: IC50=[…]+[E]total/2;
Sequence of LCK (P06239 whole entry, species assumed): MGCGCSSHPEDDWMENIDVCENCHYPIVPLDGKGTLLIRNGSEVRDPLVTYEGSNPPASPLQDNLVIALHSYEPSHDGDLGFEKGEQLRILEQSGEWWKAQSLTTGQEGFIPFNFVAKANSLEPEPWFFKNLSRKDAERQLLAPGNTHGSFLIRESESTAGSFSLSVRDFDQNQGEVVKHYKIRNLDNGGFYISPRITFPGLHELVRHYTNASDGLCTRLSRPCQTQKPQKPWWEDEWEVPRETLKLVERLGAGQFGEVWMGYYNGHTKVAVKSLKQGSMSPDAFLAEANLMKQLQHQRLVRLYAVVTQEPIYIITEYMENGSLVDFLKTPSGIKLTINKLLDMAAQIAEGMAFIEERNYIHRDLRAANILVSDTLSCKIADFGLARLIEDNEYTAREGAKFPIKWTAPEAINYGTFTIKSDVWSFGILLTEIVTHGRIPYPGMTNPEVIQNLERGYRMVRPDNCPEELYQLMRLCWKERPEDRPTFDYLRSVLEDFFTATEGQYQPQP
(§2) For all kinases, [ATP]=Km^ATP, [Btk]total=0.5 nM and [Lck]total=6 nM.
(§3) Kinase activity is measured in vitro using electrophoretic mobility shift assay. The kinase reactions are assembled in a total volume of 25 μL in 384 well plates. The reactions comprise: BTK enzyme (1 nM, N-terminal His6-tagged, recombinant, full-length, human BTK purified from baculovirus Sf21 insect cell system), inhibitor, ATP (16 μM, the apparent Km for the kinase), fluorescently labeled peptide substrate (1 μM, FAM-GEEPLYWSFPAKKK-NH2) in a reaction buffer composed of 100 mM HEPES, pH7.5, 5 mM MgCl2 1 mM DTT, 0.1% bovine serum albumin, 0.01% Triton X-100, and 1% DMSO. The reaction is incubated for one hour and is quenched by the addition of 45 μL of termination buffer (100 mM HEPES, pH7.5, 0.01% Triton X-100, 30 mM EDTA). The terminated reactions are analyzed using 12 channel LabChip® 3000 microfluidic detection instrument (Caliper Life Sciences). The enzymatic phosphorylation of the peptide results in a change in net charge, enabling electrophoretic separation of product from substrate peptide. As substrate and product peptides are separated, two peaks of fluorescence are observed. Change in the relative fluorescence intensity of the substrate and product peaks is the parameter measured, reflecting enzyme activity. In the presence of an inhibitor, the ratio between product and substrate is altered:the signal of the product decreases, while the signal of the substrate increases.
(§4) Activity in each sample is determined as the product to sum ratio (PSR):P/(S+P), where P is the peak height of the product peptide and S is the peak height of the substrate peptide. For each compound, enzyme activity is measured at various concentrations (12 concentrations of compound spaced by 3× dilution intervals). Negative control samples (0%-inhibition in the absence of inhibitor) and positive control samples (100%-inhibition, in the presence of 20 mM EDTA) are assembled in replicates of four and are used to calculate %-inhibition values for each inhibitor at each concentration. Percent inhibition (Pinh) is determined using following equation: […]

The target in assay [2] is T1, BTK (Homo sapiens, UniProt Q06187).
T1 construct: purified from insect cells as a full-length construct containing a N-terminal 6×-His tag; His6 (N); host or cells: insect cells (baculovirus Sf21)
T1 sequence (Q06187 whole entry): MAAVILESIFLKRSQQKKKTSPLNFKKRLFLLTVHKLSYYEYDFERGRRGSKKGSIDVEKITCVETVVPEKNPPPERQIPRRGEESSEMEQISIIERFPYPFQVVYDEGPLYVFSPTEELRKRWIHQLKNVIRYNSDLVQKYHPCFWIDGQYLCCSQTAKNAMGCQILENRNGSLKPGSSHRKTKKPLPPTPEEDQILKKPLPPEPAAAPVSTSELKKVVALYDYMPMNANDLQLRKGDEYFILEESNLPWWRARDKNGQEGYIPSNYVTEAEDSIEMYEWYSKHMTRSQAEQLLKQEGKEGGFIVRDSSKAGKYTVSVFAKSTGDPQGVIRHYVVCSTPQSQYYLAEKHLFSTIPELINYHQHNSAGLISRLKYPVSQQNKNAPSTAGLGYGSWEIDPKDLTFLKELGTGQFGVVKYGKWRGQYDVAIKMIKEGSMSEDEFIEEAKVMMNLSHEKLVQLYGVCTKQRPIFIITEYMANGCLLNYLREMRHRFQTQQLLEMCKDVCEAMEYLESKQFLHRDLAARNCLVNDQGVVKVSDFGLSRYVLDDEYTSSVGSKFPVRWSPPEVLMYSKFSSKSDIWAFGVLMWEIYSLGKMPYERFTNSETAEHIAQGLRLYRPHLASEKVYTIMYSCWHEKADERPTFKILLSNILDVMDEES
Nature of the assay: Btk in vitro inhibitory activity (kinase assay by one of Methods A, B or C). The protocol: as §1, §2, §3, §4

In assay [3] the target is EGFR (Homo sapiens, UniProt P00533). Nature of the assay: Kinase panel inhibition, EGFR (one of the methods of Example 76a, 76b, 76c). On the procedure: as §1, §2, §3, §4
Sequence of EGFR (P00533 25-1210, species assumed): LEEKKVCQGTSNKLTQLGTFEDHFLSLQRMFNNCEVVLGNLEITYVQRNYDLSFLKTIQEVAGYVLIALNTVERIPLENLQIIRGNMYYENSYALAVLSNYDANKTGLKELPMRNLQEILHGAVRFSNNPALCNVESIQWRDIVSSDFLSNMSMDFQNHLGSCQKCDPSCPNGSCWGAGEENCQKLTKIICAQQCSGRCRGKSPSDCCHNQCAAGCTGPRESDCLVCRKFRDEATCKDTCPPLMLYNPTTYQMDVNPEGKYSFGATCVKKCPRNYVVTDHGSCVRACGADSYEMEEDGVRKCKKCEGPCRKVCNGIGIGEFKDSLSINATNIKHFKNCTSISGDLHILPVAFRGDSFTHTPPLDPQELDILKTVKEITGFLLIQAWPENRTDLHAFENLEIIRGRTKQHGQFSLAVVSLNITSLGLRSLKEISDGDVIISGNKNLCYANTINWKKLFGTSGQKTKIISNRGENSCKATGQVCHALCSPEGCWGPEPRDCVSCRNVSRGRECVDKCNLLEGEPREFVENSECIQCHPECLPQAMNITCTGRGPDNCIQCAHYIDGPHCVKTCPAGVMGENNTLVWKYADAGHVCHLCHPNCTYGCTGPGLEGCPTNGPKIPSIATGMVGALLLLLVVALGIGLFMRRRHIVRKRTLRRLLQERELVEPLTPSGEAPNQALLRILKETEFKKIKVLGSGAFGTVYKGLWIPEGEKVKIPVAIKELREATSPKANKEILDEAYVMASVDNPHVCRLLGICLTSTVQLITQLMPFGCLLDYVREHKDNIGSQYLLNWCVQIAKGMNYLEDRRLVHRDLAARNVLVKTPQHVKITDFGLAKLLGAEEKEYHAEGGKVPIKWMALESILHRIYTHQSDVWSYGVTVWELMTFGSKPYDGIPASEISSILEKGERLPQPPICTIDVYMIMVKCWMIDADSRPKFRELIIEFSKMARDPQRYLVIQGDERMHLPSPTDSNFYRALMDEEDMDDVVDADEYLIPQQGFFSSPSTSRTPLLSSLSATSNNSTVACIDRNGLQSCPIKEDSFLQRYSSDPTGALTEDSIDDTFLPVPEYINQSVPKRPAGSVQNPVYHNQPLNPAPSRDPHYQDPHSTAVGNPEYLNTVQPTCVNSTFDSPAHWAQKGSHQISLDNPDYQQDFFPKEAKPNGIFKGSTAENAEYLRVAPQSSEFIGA

Regarding `COc1cc(-n2c(=O)n(-c3cccc(N(C)C(=O)/C=C/CN(C)C)c3)c3ncnc(N)c32)ccc1C` [Compound 30, (E)-N-(3-(6-amino-7-(3-methoxy-4-methylphenyl)-8-oxo-7H-purin-9(8H)-yl)phenyl)-4-(dimethylamino)-N-methylbut-2-enamide], the IC50 was more than 10 µM in assay [1], less than 0.1 µM in assay [2] and more than 10 µM in assay [3].

As for `CN(C)C/C=C/C(=O)N(C)c1cccc(-n2c(=O)n(-c3ccc(Oc4ccccc4)cc3)c3c(N)ncnc32)c1` [Compound 33, (E)-N-(3-(6-amino-8-oxo-7-(4-phenoxyphenyl)-7H-purin-9(8H)-yl)phenyl)-4-(dimethylamino)-N-methylbut-2-enamide], the values for the concentration for half-maximal inhibition (IC50) in assay [1], in assay [2] and in assay [3] were 1 to 10 µM, less than 0.1 µM and 0.1 to 1 µM, respectively.

`CN(C(=O)/C=C/CN(C)C1CC1)c1cccc(-n2c(=O)n(-c3ccc(Oc4ccccc4)cc3)c3c(N)ncnc32)c1` [Compound 34, (E)-N-(3-(6-amino-8-oxo-7-(4-phenoxyphenyl)-7H-purin-9(8H)-yl)phenyl)-4-(cyclopropyl(methyl)amino)-N-methylbut-2-enamide]: the values for the concentration for half-maximal inhibition (IC50) in assay [1], in assay [2] and in assay [3] were 1 to 10 µM, less than 0.1 µM and 0.1 to 1 µM, respectively.

As for `CN(C)C/C=C/C(=O)N(C)c1ccc(-n2c(=O)n(-c3ccc(Oc4ccccc4)cc3)c3c(N)ncnc32)cc1` [Compound 43, (E)-N-(4-(6-amino-8-oxo-7-(4-phenoxyphenyl)-7H-purin-9(8H)-yl)phenyl)-4-(dimethylamino)-N-methylbut-2-enamide], the IC50 in assay [1] is 0.1 to 1 µM; in assay [2] it was less than 0.1 µM; in assay [3] it was 1 to 10 µM.

With `CN(C(=O)/C=C/CN(C)C1CC1)c1ccc(-n2c(=O)n(-c3ccc(Oc4ccccc4)cc3)c3c(N)ncnc32)cc1` [Compound 44, (E)-N-(4-(6-amino-8-oxo-7-(4-phenoxyphenyl)-7H-purin-9(8H)-yl)phenyl)-4-(cyclopropyl(methyl)amino)-N-methylbut-2-enamide], the IC50 was 0.1 to 1 µM in assay [1], less than 0.1 µM in assay [2] and 1 to 10 µM in assay [3].

As to `CN(C(=O)/C=C/CN(C)C1CCC1)c1ccc(-n2c(=O)n(-c3ccc(Oc4ccccc4)cc3)c3c(N)ncnc32)cc1` [Compound 45, (E)-N-(4-(6-amino-8-oxo-7-(4-phenoxyphenyl)-7H-purin-9(8H)-yl)phenyl)-4-(cyclobutyl(methyl)amino)-N-methylbut-2-enamide], the IC50 in assay [1] was 0.1 to 1 µM; in assay [2], less than 0.1 µM; in assay [3] it was 1 to 10 µM.

As to `CN(C)C/C=C/C(=O)N(C)c1ccc(-n2c(=O)n(-c3ccc(Cl)cc3)c3c(N)ncnc32)cc1` [Compound 48, (E)-N-(4-(6-amino-7-(4-chlorophenyl)-8-oxo-7H-purin-9(8H)-yl)phenyl)-4-(dimethylamino)-N-methylbut-2-enamide], the IC50 in assay [1] was 1 to 10 µM; in assay [2], 0.1 to 1 µM; in assay [3], more than 10 µM.

Turning to `CN(C(=O)/C=C/CN(C)C1CC1)c1ccc(-n2c(=O)n(-c3ccc(Cl)cc3)c3c(N)ncnc32)cc1` [Compound 49, (E)-N-(4-(6-amino-7-(4-chlorophenyl)-8-oxo-7H-purin-9(8H)-yl)phenyl)-4-(cyclopropyl(methyl)amino)-N-methylbut-2-enamide], the results for the IC50 in assay [1], in assay [2] and in assay [3] were 1 to 10 µM, 0.1 to 1 µM and more than 10 µM, respectively.

With `CN(C(=O)/C=C/CN(C)C1CCC1)c1ccc(-n2c(=O)n(-c3ccc(Cl)cc3)c3c(N)ncnc32)cc1` [Compound 50, (E)-N-(4-(6-amino-7-(4-chlorophenyl)-8-oxo-7H-purin-9(8H)-yl)phenyl)-4-(cyclobutyl(methyl)amino)-N-methylbut-2-enamide], the IC50 in assay [1] is 1 to 10 µM; in assay [2], 0.1 to 1 µM; in assay [3], more than 10 µM.

As to `C=CC(=O)N(C)c1ccc(-n2c(=O)n(-c3ccc(Cl)cc3)c3c(N)ncnc32)cc1` [Compound 51, N-(4-(6-amino-7-(4-chlorophenyl)-8-oxo-7H-purin-9(8H)-yl)phenyl)-N-methylacrylamide], the IC50 is 1 to 10 µM in assay [1], less than 0.1 µM in assay [2] and 0.1 to 1 µM in assay [3].

As to `COc1cc(-n2c(=O)n(-c3ccc(N(C)C(=O)/C=C/CN(C)C)cc3)c3ncnc(N)c32)ccc1C` [Compound 54, (E)-N-(4-(6-amino-7-(3-methoxy-4-methylphenyl)-8-oxo-7H-purin-9(8H)-yl)phenyl)-4-(dimethylamino)-N-methylbut-2-enamide], the IC50 in assay [1] is 1 to 10 µM; in assay [2], less than 0.1 µM; in assay [3], 1 to 10 µM.

For `C=CC(=O)N(C)c1ccc(-n2c(=O)n(-c3ccc(C)c(OC)c3)c3c(N)ncnc32)cc1` [Compound 55, N-(4-(6-amino-7-(3-methoxy-4-methylphenyl)-8-oxo-7H-purin-9(8H)-yl)phenyl)-N-methylacrylamide], the IC50 in assay [1] is 1 to 10 µM; in assay [2] it was less than 0.1 µM; in assay [3], 1 to 10 µM.

Consider `CN(C/C=C/C(=O)N1CC[C@@H](n2c(=O)n(-c3ccc(Oc4ccccc4)cc3)c3c(N)ncnc32)C1)C1CC1` [Compound 63, (R,E)-6-amino-9-(1-(4-(cyclopropyl(methyl)amino)but-2-enoyl)pyrrolidin-3-yl)-7-(4-phenoxyphenyl)-7H-purin-8(9H)-one], for which the results for the IC50 in assay [1], in assay [2] and in assay [3] were 0.1 to 1 µM, less than 0.1 µM and 1 to 10 µM, respectively.

`CN(C/C=C/C(=O)N1CC[C@@H](n2c(=O)n(-c3ccc(Oc4ccccc4)cc3)c3c(N)ncnc32)C1)C1CCC1` [Compound 64, (R,E)-6-amino-9-(1-(4-(cyclobutyl(methyl)amino)but-2-enoyl)pyrrolidin-3-yl)-7-(4-phenoxyphenyl)-7H-purin-8(9H)-one]: the IC50 in assay [1] is 0.1 to 1 µM; in assay [2], less than 0.1 µM; in assay [3], 1 to 10 µM.

Turning to `CN(C)C/C=C/C(=O)N1CC[C@@H](n2c(=O)n(-c3ccc(Cl)cc3)c3c(N)ncnc32)C1` [Compound 67, (R,E)-6-amino-7-(4-chlorophenyl)-9-(1-(4-(dimethylamino)but-2-enoyl)pyrrolidin-3-yl)-7H-purin-8(9H)-one], the IC50 in assay [1] is 1 to 10 µM; in assay [2], 0.1 to 1 µM; in assay [3] it was more than 10 µM.

For `CN(C)C/C=C/C(=O)N1CCC(Cn2c(=O)n(-c3ccc(Oc4ccccc4)cc3)c3c(N)ncnc32)CC1` [Compound 75, (E)-6-amino-9-((1-(4-(dimethylamino)but-2-enoyl)piperidin-4-yl)methyl)-7-(4-phenoxyphenyl)-7H-purin-8(9H)-one], the results for the half-maximal inhibitory concentration (IC50) in assay [1], in assay [2] and in assay [3] were 0.1 to 1 µM, less than 0.1 µM and 1 to 10 µM, respectively.

With `COc1cc(-n2c(=O)n([C@@H]3CCN(C(=O)/C=C/CN(C)C)C3)c3ncnc(N)c32)ccc1C` [Compound 81, (R,E)-6-amino-9-(1-(4-(dimethylamino)but-2-enoyl)pyrrolidin-3-yl)-7-(3-methoxy-4-methylphenyl)-7H-purin-8(9H)-one], the IC50 in assay [1] was 1 to 10 µM; in assay [2] it was less than 0.1 µM; in assay [3] it was more than 10 µM.

As usually defined, the IC50 is the concentration at which inhibition is half-maximal. Read a low IC50 as inhibition by little substance.
